Key:
[1] = biological target: T1, human serum albumin (HSA) (Homo sapiens, UniProt P02768); experiment: Fluorescence quenching titration of HSA (Stern–Volmer analysis); format: binding; conditions: for K SV, Stern–Volmer quenching constant: 20 mM phosphate buffer pH 7.4, 25°C, excitation 295 nm; for K q, bimolecular quenching rate constant: Kq = KSV/τ0, τ0 = 10^−8 s, 25°C; for ∆G, standard free energy change of binding: ΔG = −2.303 RT logK; for redshift at the maximal emission wavelength of Tyr and Trp residues of HSA: increasing compound concentration
T1 construct: I (residues 1–195), II (196–383), and III (384–585); purchased Sigma
T1 sequence (P02768 25-609): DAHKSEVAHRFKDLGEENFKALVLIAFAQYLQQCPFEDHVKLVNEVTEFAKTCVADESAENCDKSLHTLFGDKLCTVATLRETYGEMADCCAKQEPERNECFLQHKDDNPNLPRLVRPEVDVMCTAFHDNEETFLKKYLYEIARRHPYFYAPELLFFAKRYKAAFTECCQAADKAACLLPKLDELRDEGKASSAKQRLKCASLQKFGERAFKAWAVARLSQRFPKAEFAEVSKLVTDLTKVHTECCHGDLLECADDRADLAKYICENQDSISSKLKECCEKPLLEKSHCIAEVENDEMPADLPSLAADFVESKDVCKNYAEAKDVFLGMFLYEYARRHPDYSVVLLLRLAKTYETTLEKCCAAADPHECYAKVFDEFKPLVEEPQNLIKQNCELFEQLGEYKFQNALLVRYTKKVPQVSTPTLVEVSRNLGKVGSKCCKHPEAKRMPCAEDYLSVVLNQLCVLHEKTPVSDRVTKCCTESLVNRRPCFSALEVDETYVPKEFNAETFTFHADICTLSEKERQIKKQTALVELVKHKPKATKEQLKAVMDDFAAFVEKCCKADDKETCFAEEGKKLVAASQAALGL
Experimental: (§1) The samples of HSA were prepared in 20 mM phosphate buffer (pH 7.4), whereas silver complexes (1 mM) stock solution were prepared in DMSO and further diluted in 20 mM phosphate buffer to reach the desired concentration. In all the samples, the final concentration of DMSO was not more than 1%. The concentration of HSA was determined using the Beer–Lambert law with the molar extinction coefficient of 36500 M^−1·cm^−1 at 280 nm. To study structural changes in HSA by the addition of [Ag(I)(Hnor)2](anion) compounds, the UV absorption spectra were measured, by variation of the concentration of the [Ag(I)(Hnor)2](anion) compounds, while keeping the concentration of HSA constant. UV absorption spectra, from 240 nm to 320 nm, were recorded on a Perkin–Elmer Lambda 45 spectrophotometer at 25°C. Quartz cuvettes of 1 cm path length were used for the measurements. Fluorescence measurements were performed on a Hitachi spectrofluorometer (Model F 7000) equipped with a PC. The fluorescence spectra were collected at 25°C with a path length cell of 1 cm. The slit width used was 5 nm with a protein concentration of 5 µM. The used excitation wavelength for the protein was 295 nm.
(§2) All the spectra were recorded after equilibration of the reaction mixture for 5 min.
The interaction between metal compounds and proteins has been widely investigated by using fluorescence spectroscopies. The luminescence response of HSA, upon addition of different concentrations of Ag(I) compounds, was studied in 20 mM phosphate buffer by using an emission titration experiment. Preliminary luminescence studies of the four starting Ag compounds 1–4 have been reported earlier by some of us. The excitation at 290 nm for all four compound results in a strong luminescence band at around 370 nm. The fluorescence studies of the ligand “Hnor” as well as the free silver salt, “AgNO3,” were also studied under the same conditions to compare the effect of separate entities with a combination of the two. Upon excitation at 295 nm, fluorescence intensity around 340 nm is known to reflect the changes of the tryptophan residue microenvironment. […] In Figure S3, similar data are presented for compounds 2–4, with only marginal differences upon anion variation.
The interaction of the Ag compounds with HSA was quantified; the Stern–Volmer equation has been employed:(1) F0/F=1+KSVQ=1+Kqτ0Q, where F 0 and F are the steady-state fluorescence intensities in the absence and presence of quencher at 340 nm, respectively. K sv is the Stern–Volmer quenching constant, K q stands for bimolecular quenching constant, τ 0 is the lifetime of the fluorophore in the absence of quencher, and [Q] is the concentration of quencher (i.e., the Ag compound). By calculating the quenching rate constants, K q, one can distinguish between the static quenching and the dynamic quenching, and this was evaluated by using the following equation:(2) Kq=KSV/τ0.
The value of tau(zero), τ 0, for biopolymers is known to be 10^−8 s. The Stern–Volmer quenching constant (K sv) for the fluorometric titration of the Ag(I) compounds into HSA solution was calculated from the linear relationship between F 0/F and [Ag(I)(Hnor)2]ClO4 (Figure 5) and enlisted in Table 1. In Figure S4, similar data are presented for compounds 2–4, confirming the above observations.
The equilibrium between free and bound molecules, when small molecules bind independently to a set of similar sites on a macromolecule, was ascertained by a modified Stern–Volmer equation [42]:(3) logF0−F/F=logK+n logQ, where K and n are the binding constant and the number of binding sites, respectively. A plot of log(F 0 − F/F) versus log[Q] was used to determine the value of K and n (inset in Figure 5). Several forces, like electrostatic, hydrogen bonds, weak van der Waals, hydrophobic, and steric contacts, can be thought of being responsible for the interaction between the albumin and Ag compounds. […]

[2] = tested on: two different cancer cell lines; parameters: method as in PMID 25042730; conditions: previous study; cited from earlier work
[3] = biological target: T1, human serum albumin (HSA); experiment: Fluorescence quenching of HSA with addition of extra anions (KClO4, KNO3); format: binding; conditions: for K SV / K, binding constant / n, number of binding sites: HSA 5 µM; for effect of anion salt alone on HSA structure: without Ag and Hnor, up to the concentration maximum used in the experiments
Experimental: as §1
Given the fact that the highest anticancer activity and also the most substantial HSA interaction takes place in case of the perchlorate and nitrate salts, it was decided to add extra perchlorate (and also nitrate) for all cases and to study the effect on the binding affinity. So, we carried out two sets of experiments and studied the binding propensity of Ag(I) compounds with HSA. In one experiment, the extra ClO4 ^− anion was added in a 1 : 4 ratio, compared to the Ag compound. In a second experiment, we used additional nitrate together with the Ag(I) compounds. Details are given in Figures 6 and 7, and the quite similar details for the other 3 compounds are presented in Figures S5 and S6 in Supplementary Materials.
To determine the role of only the anions (i.e., without Ag and Hnor), we also used KClO4 and KNO3 and studied their HSA binding by adding variable amounts of anions to the concentration maximum used in the experiments. […] When the extra anions + compounds were titrated, the results obtained did show an exponential increase in binding affinity of the Ag(I) compounds.
The binding strength was evaluated by calculating the Stern–Volmer constant (K sv), a number of the binding sites (n) and Gibbs free energy (ΔG); (Table 2). […] However, no correlation with the size of these four anions is seen.

[4] = biological target: T1, human serum albumin (HSA); experiment: Far-UV circular dichroism of HSA, α-helix content; format: binding; parameters: unit of the concentration uncertain; conditions: HSA 20 µM, free HSA 67.03
Experimental: CD measurements were carried out on a Jasco spectropolarimeter (Model J-815) equipped with a microcomputer. The instrument was calibrated with D-10-camphorsulfonic acid. All the CD measurements were performed at 25°C with a thermostatically controlled cell holder, attached to a Neslab RTE-110 water bath with an accuracy of ±0.1°C. Spectra were collected with a scan speed of […] and a response time of 1 s. Each spectrum was taken as the average of three scans. The far-UV CD spectra were measured at a protein concentration of 20 µM at a path length of 1 cm.
as §2
The CD signal, expressed in millidegree, obtained over the wavelength range of 190–250 nm, was converted to a mean residue ellipticity (MRE, θ), using the following conversion:(5) MRE=θobs mdeg/10×n×Cp×l, where θ obs is the CD in millidegree, the number of amino acid residues (585) is given by n, “l” is the path length (cm), and C p is the molarity. The unit of MRE is deg·cm^2·dmol^−1.

[5] = biological target: T1, human serum albumin (HSA); experiment: UV absorption spectra of HSA with Ag(I) compounds; format: binding; conditions: HSA 5 µM, with hyperchromism
Experimental: as §1, §2

[6] = modified Stern–Volmer equation, HSA 5 µM, pH 7.4, 25°C
[7] = Set A: +extra ClO4− (KClO4, 1:4 ratio)
[8] = Set B: +extra NO3− (KNO3, 1:4 ratio)
[9] = compound concentration 20 (unit uncertain)
[10] = compound concentration 40 (unit uncertain)
[11] = compound concentration 60 (unit uncertain)
[12] = compound concentration 80 (unit uncertain)
[13] = compound concentration 100 (unit uncertain)

| SMILES | K SV, Stern–Volmer quenching constant ([1]; HSA 5 µM) | K q, bimolecular quenching rate constant ([1]; HSA 5 µM) | K, binding constant [1, 6] | n, number of binding sites [1, 6] | ∆G, standard free energy change of binding [1] [kcal/mol] | redshift at the maximal emission wavelength of Tyr and Trp residues of HSA ([1]; HSA 5 µM) [nm] | K SV [3, 7] | K, binding constant [3, 7] | n, number of binding sites [3, 7] | ∆G [3, 8] [kcal/mol] | K SV [3, 8] | K, binding constant [3, 8] | n, number of binding sites [3, 8] | % α-helix of HSA [4, 9] [%] | % α-helix of HSA [4, 10] [%] | % α-helix of HSA [4, 11] [%] | % α-helix of HSA [4, 12] [%] | % α-helix of HSA [4, 13] [%] | redshift (bathochromic effect) of HSA UV absorbance [5] [nm] | further results |
| --- | --- | --- | --- | --- | --- | --- | --- | --- | --- | --- | --- | --- | --- | --- | --- | --- | --- | --- | --- | --- |
| O=[N+]([O-])[O-].[Ag+] [AgNO3, reference compound] | 3.10 10^5 M^−1 | 31.0 10^12 M^−1·s^−1 | 1.94 10^6 M^−1 | 1.1 | -8.576 | – | – | – | – | – | – | – | – | – | – | – | – | – | – | – |
| [Ag+].[O-][Cl+3]([O-])([O-])[O-].c1ccc2c(c1)[nH]c1cnccc12.c1ccc2c(c1)[nH]c1cnccc12 [Compound 1, [Ag(Hnor)2](ClO4)] | 5.37 10^5 M^−1 | 53.7 10^12 M^−1·s^−1 | 3.74 10^6 M^−1 | 1.1 | -8.963 | 7 | 2.21 10^7 M^−1 | 17.2 10^10 M^−1 | 1.77 | -14.4 | 2.06 10^7 M^−1 | 3.64 10^10 M^−1 | 1.64 | 64.07 | 62.23 | 58.59 | 50.18 | 35.63 | 7 | anticancer activity [2]: comparable to cisplatin; ∆G [3, 7]: -15.33 kcal/mol |
| O=[N+]([O-])[O-].[Ag+].c1ccc2c(c1)[nH]c1cnccc12.c1ccc2c(c1)[nH]c1cnccc12 [Compound 2, [Ag(Hnor)2](NO3)] | 5.34 10^5 M^−1 | 53.4 10^12 M^−1·s^−1 | 3.64 10^6 M^−1 | 1.0 | -8.948 | 5 | 1.29 10^7 M^−1 | 6.05 10^10 M^−1 | 1.58 | -13.4 | 1.24 10^7 M^−1 | 0.66 10^10 M^−1 | 1.53 | 62.85 | 61.61 | 58.41 | 52.02 | 42.73 | 5 | – |
| CC#N.F[P-](F)(F)(F)(F)F.[Ag+].c1ccc2c(c1)[nH]c1cnccc12.c1ccc2c(c1)[nH]c1cnccc12 [Compound 3, [Ag(Hnor)2(MeCN)](PF6)] | 4.53 10^5 M^−1 | 45.3 10^12 M^−1·s^−1 | 0.55 10^6 M^−1 | 1.2 | -7.823 | 4 | 0.84 10^7 M^−1 | 0.46 10^10 M^−1 | 1.55 | -12.19 | 0.80 10^7 M^−1 | 0.08 10^10 M^−1 | 1.41 | 63.57 | 62.57 | 60.37 | 56.31 | 47.18 | 5 | ∆G [3, 7]: -13.18 kcal/mol |
| F[B-](F)(F)F.[Ag+].c1ccc2c(c1)[nH]c1cnccc12.c1ccc2c(c1)[nH]c1cnccc12 [Compound 4, [Ag(Hnor)2](BF4)] | 3.97 10^5 M^−1 | 39.7 10^12 M^−1·s^−1 | 1.14 10^6 M^−1 | 1.1 | -8.258 | 4 | 1.85 10^7 M^−1 | 1.19 10^10 M^−1 | 1.69 | -13.07 | 1.38 10^7 M^−1 | 0.38 10^10 M^−1 | 1.48 | 65.25 | 63.82 | 61.53 | 56.66 | 47.52 | 6 | – |
| c1ccc2c(c1)[nH]c1cnccc12 [Hnor, 9H-pyrido[3,4-b]indole, reference compound] | 2.95 10^5 M^−1 | 29.5 10^12 M^−1·s^−1 | – | 1.0 | -7.505 | – | – | – | – | – | – | – | – | – | – | – | – | – | – | Kd ([1]; modified Stern–Volmer equation, HSA 5 µM, pH 7.4, 25°C, read-out: K, binding constant (converted)): 3.03 µM |
| [K+].[O-][Cl+3]([O-])([O-])[O-] [KClO4, reference compound] | – | – | – | – | – | – | – | – | – | – | – | – | – | – | – | – | – | – | – | effect of anion salt alone on HSA structure [3]: negligible perturbance of the HSA structure |
| O=[N+]([O-])[O-].[K+] [KNO3, reference compound] | – | – | – | – | – | – | – | – | – | – | – | – | – | – | – | – | – | – | – | effect of anion salt alone on HSA structure [3]: negligible perturbance of the HSA structure |

From paper PMC5889910, “β-Carboline Silver Compound Binding Studies with Human Serum Albumin: A Comprehensive Multispectroscopic Analysis and Molecular Modeling Study” (Bioinorganic Chemistry and Applications, 2018)
